Cell viability and IC50 data for one compound are collected here from publication PMC10000267, “ALA‐A2 Is a Novel Anticancer Peptide Inspired by Alpha‐Lactalbumin: A Discovery from a Computational Peptide Library, In Silico Anticancer Peptide Screening and In Vitro Experimental Validation” (Global Challenges, 2023).

Test [1] concerns A549 lung adenocarcinoma cells. The experiment in a line: In vitro cancer cytotoxicity (MTT assay). The class given is cell-based, human. As to conditions: 24 h. The method, then:
(§1) All cell lines were obtained from the American Type Culture Collection (ATCC, Manassas, VA, USA). The A549 lung adenocarcinoma (ATCC CCL‐185TM), MDA‐MB‐231 triple‐negative breast adenocarcinoma (ATCC HTB‐26TM), and SH‐SY5Y neuroblastoma (ATCC CRL‐2266TM) cell lines were cultured in Dulbecco's Modified Eagle's Medium (DMEM)‐high glucose (Gibco, Thermo Fisher Scientific, MA, USA). HT29 colon adenocarcinoma (ATCC HTB‐38) cell lines were maintained in DMEM/Nutrient Mixture F‐12 (Gibco). K562 chronic myeloid leukemia (ATCC CRL‐3344) were grown in Roswell Park Memorial Institute Medium 1640 (Gibco). The cells were cultured in medium supplemented with 10% fetal bovine serum (Gibco) and 1× penicillin/streptomycin (Gibco) and incubated in a 5% CO2 incubator with saturated humidity.
(§2) The protocol previously described by Chiangjong et al. and Baindara et al.^[ [5], [29] ^] was modified for use in determining the cytotoxicity of peptides on the various cancer types. Adherent cells were seeded at 1 × 10^4 cells/well into a 96‐well plate 24 h prior to replacing the media containing the peptide of interest. Suspended cells were seeded at 1 × 10^4 cells/well in the media containing the peptide of interest. Five human cell lines, including lung cancer (A549), colon cancer (HT29), breast cancer (MDA‐MB‐231), neuroblastoma (SH‐SY5Y), and leukemia (K562) cells, were treated with the culture media containing the peptides at 200 µM for 24 h. Cell viability was then determined using Cell Proliferation Kit I, MTT (Roche Diagnostics GmbH, Mannheim, Germany): MTT labeling reagent (10 µL) was added to each well and incubated at 37 °C in a 5% CO2 atmosphere for 4 h. After incubation, 100 µL solubilizing solution was added to each well and incubated at 37 °C in 5% CO2 overnight. The absorbance at 570 nm (A 570) was measured for each well. The percentage of cell viability was calculated as: (1) % Cell Viability=[A570 of treated cells − A570 of media/A570 of untreated cells−A570 of media] × 100
(§3) To evaluate dose‐dependency, ≈1 × 10^4 cells/well were cultured in media containing ALA‐A2 at 0, 6.25, 12.5, 25, 50, 100, 200, and 400 µM in a 96‐well plate for 24 h. Cell viability was determined by the MTT assay, as above.

Test [2] concerns HT29 colon adenocarcinoma cells. The experiment in a line: In vitro cancer cytotoxicity (MTT assay). The format is cell-based, human. As to conditions: 24 h. As for the experimental part: as §1, §2, §3
A general note: Tetrazolium assays rely on reduction of a dye to a coloured formazan, in cell work by metabolically active cells.

Residues, ends and D or L forms follow the SMILES beside them.

Broadly, the IC50 is the concentration at which inhibition is half-maximal. For `CC(C)C[C@H](NC(=O)[C@@H](N)CCCCN)C(=O)N[C@@H](Cc1c[nH]c2ccccc12)C(=O)N[C@@H](CS)C(=O)N[C@@H](CCCCN)C(=O)N[C@@H](CO)C(=O)N[C@@H](CO)C(=O)N[C@@H](CCC(N)=O)C(=O)N[C@H](C(=O)N1CCC[C@H]1C(=O)N[C@@H](CCC(N)=O)C(=O)N[C@@H](CO)C(=O)N[C@@H](CCCNC(=N)N)C(=O)O)C(C)C` [ALA‐A2] (H-KLWCKSSQVPQSR-OH), the cell viability is 59.7 ± 1.1 % cell viability in test [1] (A549, peptide 200 µM, 37 °C, A570, mean ± SD, three biological replicates) and 55.3 ± 2.7 % cell viability in test [2] (HT29, peptide 200 µM, 37 °C, A570, mean ± SD, three biological replicates). The IC50 was ~300 µM in test [1] (A549, twofold serial dilutions 0 to 400 µM) and > 1000 µM in test [2] (HT29, twofold serial dilutions 0 to 400 µM, extrapolated beyond the tested range).
